# Assay results reported in patent US5683725A, “Modulation of substance P by compounds containing calcium sulfate and methods relating thereto” (BioFrontiers, Inc., priority 1995, dated 1997).
# “And” between values parts separate entries of the source, which are not always exact repeats. Equal values may be shown once. No end group written: not given here.
# Legend:
# [1] = tested on: substance P-induced contractions of guinea pig ileum; assay: Antagonism of substance P: inhibition of substance P-induced contractions of isolated guinea pig ileum; settings: for Antagonist Activity (% Inhibition): 100 μM, substance P-induced contractions of isolated guinea pig ileum, 37° C., with atropine, diphenhydramine, indomethacin; for Modulation of substance P (in words): conclusion from Table 1
# Excerpt: The ability of the calcium sulfate compounds of this invention to modulate substance P may be assayed by known techniques, such as those disclosed by Mizrahi et al. (Eur. J. Pharmacol. 91:139-140, 1983) and Holzer et al. (P. Eur. J. Pharmacol. 91:83-88, 1983). For example, PanLabs Test Numbers 3-0580 screen the ability of compounds to function as substance P antagonists by determining the ability of the compound to inhibit substance P-induced contractions of guinea pig ileum (see Example 6 herein below).
# This example illustrates the ability of representative calcium sulfate compounds of this invention to modulate substance P by functioning as substance P antagonists. Activity was measured by the procedures disclosed by Mizrahi et al. (Eur. J. Pharmacol. 91:139-140, 1983) and Holzer et al., (Eur. J. Pharmacol. 91:83-88, 1983). Specifically, isolated guinea pig ileum, bathed in physiological salt solution containing atropine (4.5 μM), diphenhydramaine (3.4 μM), and indomethacin (2.8 μM) at 37° C. was used. The ability of a test compounds to inhibit substance P-induced contractions of the illeum indicates antagonist activity.
# [2] = Single oral dose toxicity in Sprague Dawley rats, 14 day observation; format: in vivo, rat (Sprague Dawley); settings: single oral dose 5 g/kg
# Description: This example illustrates the non-toxic nature of a representative calcium sulfate compound of this invention (i.e., syngenite).
# To determine the potential toxicity and/or toxic effects of syngenite when administered as a single oral dose in rats, 5 male and 5 female Sprague Dawley rats (200-300 grams) were administered syngenite at a dose level of 5 g/kg body weight by syringe and suitable intubation tubes.
# The body weight of each rat was recorded (in grams) just prior to administration of syngenite (Day 0), and weekly thereafter for two weeks (i.e., Day 7 and Day 14).
# [3] = tested on: neurogenic inflammation; settings: pretreatment of the oral mucosa; cited from earlier work
# [4] = tested on: stomach injury; settings: cited from earlier work
# [5] = tested on: cluster headaches; settings: intranasal, humans; cited from earlier work
# [6] = tested on: nasal protein output; settings: exogenously applied, allergic rhinitis patients; cited from earlier work
# [7] = tested on: febrile response; settings: microinjected into the preoptic area of conscious guinea pigs; cited from earlier work
compound,measurement,setting,value
O.O=S(=O)([O-])[O-].O=S(=O)([O-])[O-].O=S(=O)([O-])[O-].O=S(=O)([O-])[O-].O=S(=O)([O-])[O-].O=S(=O)([O-])[O-].[Ca+2].[Ca+2].[Ca+2].[Ca+2].[Ca+2].[K+].[K+] [Gorgeyite],Antagonist Activity (% Inhibition),[1],16%
same,Modulation of substance P (in words),[1],effective modulating agents of substance P
"O.O.O=S(=O)([O-])[O-].[Ca+2] [Gypsum, calcium sulfate dihydrate]",Antagonist Activity (% Inhibition),[1],39%
same,Modulation of substance P (in words),[1],effective modulating agents of substance P
O.O=S(=O)(O)O.O=S(=O)(O)O.[Ca].[K].[K] [Syngenite],Antagonist Activity (% Inhibition),[1],40%
same,Modulation of substance P (in words),[1],effective modulating agents of substance P
same,"Body weight, Day 7",[2]; female rats,255 grams and 266 grams and 251 grams and 269 grams and 279 grams
same,"Body weight, Day 14",[2]; female rats,256 grams and 273 grams and 287 grams and 299 grams
same,"Body weight, Day 7",[2]; male rats,350 grams and 333 grams and 329 grams and 336 grams and 337 grams
same,"Body weight, Day 14",[2]; male rats,395 grams and 374 grams and 375 grams and 368 grams and 386 grams
same,Gross abnormalities at necropsy,[2],No gross abnormalities in any of the animals were observed
same,Survival / mortality,"[2]; 5 male and 5 female rats, 14 days",All ten test animals survived the 14 day observation period
same,Appearance of animals,[2]; 14 days,all animals appeared normal
same,Clinical observations,[2]; 14 days,No clinical observations were noted
same,Toxicity (overall),[2]; rats,non-toxic
COc1cc(CNC(=O)CCCC/C=C/C(C)C)ccc1O [capsaicin],Neurogenic inflammation upon local administration of substance P,[3],prevents neurogenic inflammation
same,Area of stomach injury,"[4]; intragastric, prior to challenge with 30% ETOH",reduced the area of stomach injury
same,Severity of cluster headaches,[5],decrease the severity of cluster headaches
"substance P: undecapeptide, member of the tachykinin family of mammalian regulatory peptides (RPKPQQFFGLM; ends and bridges not checked; UniProt P20366 58-68, looked up)",Nasal protein output,[6],causes an increase in nasal protein output
same,Areas of injury (stomach),[4]; given IV,increased the areas of injury
same,Temperature,[7],caused an increase in temperature
